Source: patent US20220249413A1, “SWELL 1 MODULATORS FOR TREATMENT OF NON-ALCOHOLIC FATTY LIVER DISEASE, IMMUNE DEFICIENCIES, MALE INFERTILITY AND VASCULAR DISEASES” (priority 2019, published 2022)

Tested on: SWELL1 protein
Assay: SWELL1 protein expression by Western blot in 3T3-F442A preadipocytes and adipocytes
Assay type: cell-based
Details: 10 μM applied for 96 hours
Description: For Smod1 (DCPIB) mediated induction of SWELL1 and insulin signaling studies in 3T3-F442A preadipocytes, the cells were incubated with either vehicle (DMSO) or 10 μM Smod1 for 96 h. The cells were serum starved for 6 h (+DMSO or Smod1) and stimulated with 0, 3 and 10 nM insulin containing media (−DMSO or Smod1), as described above for 15 mins and the lysates were collected. In the case of 3T3-F442A adipocytes, the WT and KO cells were treated with either vehicle (DMSO) or 10 μM Smod1 following 7-11 days of differentiation for 96 h and then stimulated with 0 and 10 nM insulin for 15 min, as described above. Human embryonic kidney (HEK) cells were cultured and maintained in 90% DMEM (25 mM D-Glucose and 4 mM L-Glutamine) containing 10% fetal bovine serum (FBS) and 100 IU penicillin and 100 μg/ml streptomycin media.
Electrophysiology Patch-clamp recordings of β-cells and mature adipocytes were performed as described previously (Zhang et al., Nat Cell Biol, 19, 504-517, 2017; Kang et al., Nature Communications, 9, 367, 2018). 3T3-F442A WT and KO preadipocytes were prepared as described in the Cell culture section above. […] Recordings were measured using Axopatch 200B amplifier paired to a Digidata 1550 digitizer using pClamp 10.4 software. […] The images were further analyzed for band intensities using ImageJ software. […]

With `CCCCC1(C2CCCC2)Cc2cc(OCCCC(=O)O)c(Cl)c(Cl)c2C1=O` (centres unmarked) [Smod1, 4-[(2-Butyl-6,7-dichloro-2-cyclopentyl-2,3-dihydro-1-oxo-1H-inden-5-yl)oxy]butanoic acid] the “increase of SWELL1 protein expression” value (3T3-F442A adipocytes) was 1.5 fold and the “increase of SWELL1 protein expression” value (3T3-F442 preadipocytes) was “β”.
